Holding throughout (test): Enzyme Assay
Test [1] deals with PIK3CA (human) (UniProt P42336).
The target in test [2] is PIK3CB (Human) (UniProt P42338).
Test [3] has as its target PIK3CD (Human) (UniProt O00329).
Test [4] deals with PIK3CG (human) (UniProt P48736).

One may read the IC50 as the concentration that gives 50% inhibition.

Sequence of PIK3CG (human) (P48736 whole entry, looked up): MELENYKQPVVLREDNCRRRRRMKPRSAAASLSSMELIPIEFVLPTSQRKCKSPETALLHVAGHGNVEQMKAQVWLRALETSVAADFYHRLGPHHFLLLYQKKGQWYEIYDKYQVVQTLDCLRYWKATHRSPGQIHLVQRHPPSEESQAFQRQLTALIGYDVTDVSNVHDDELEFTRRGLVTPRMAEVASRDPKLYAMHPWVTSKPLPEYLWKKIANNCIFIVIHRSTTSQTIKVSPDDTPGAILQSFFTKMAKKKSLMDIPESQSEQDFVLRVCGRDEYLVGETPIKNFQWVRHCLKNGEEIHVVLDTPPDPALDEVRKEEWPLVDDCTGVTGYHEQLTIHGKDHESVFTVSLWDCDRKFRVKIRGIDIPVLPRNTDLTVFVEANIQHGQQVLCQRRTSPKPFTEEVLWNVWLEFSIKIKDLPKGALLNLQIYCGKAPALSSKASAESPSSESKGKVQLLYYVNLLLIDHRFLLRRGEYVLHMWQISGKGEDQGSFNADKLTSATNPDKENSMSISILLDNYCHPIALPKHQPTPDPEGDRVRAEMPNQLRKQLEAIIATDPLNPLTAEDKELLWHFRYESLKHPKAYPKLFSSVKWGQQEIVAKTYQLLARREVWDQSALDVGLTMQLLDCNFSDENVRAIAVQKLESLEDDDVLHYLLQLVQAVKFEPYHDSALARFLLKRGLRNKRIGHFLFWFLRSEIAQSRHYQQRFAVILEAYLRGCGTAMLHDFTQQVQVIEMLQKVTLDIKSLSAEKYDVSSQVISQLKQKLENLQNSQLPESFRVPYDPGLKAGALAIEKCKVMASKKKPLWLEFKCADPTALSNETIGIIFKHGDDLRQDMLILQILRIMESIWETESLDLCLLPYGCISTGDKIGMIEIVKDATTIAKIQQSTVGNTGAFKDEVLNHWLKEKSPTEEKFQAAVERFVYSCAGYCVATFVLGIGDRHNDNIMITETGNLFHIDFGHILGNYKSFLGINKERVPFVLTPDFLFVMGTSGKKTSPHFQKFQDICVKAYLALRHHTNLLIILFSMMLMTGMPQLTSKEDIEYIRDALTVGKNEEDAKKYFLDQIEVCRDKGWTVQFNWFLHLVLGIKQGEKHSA
Sequence of PIK3CA (human) (P42336 whole entry, looked up): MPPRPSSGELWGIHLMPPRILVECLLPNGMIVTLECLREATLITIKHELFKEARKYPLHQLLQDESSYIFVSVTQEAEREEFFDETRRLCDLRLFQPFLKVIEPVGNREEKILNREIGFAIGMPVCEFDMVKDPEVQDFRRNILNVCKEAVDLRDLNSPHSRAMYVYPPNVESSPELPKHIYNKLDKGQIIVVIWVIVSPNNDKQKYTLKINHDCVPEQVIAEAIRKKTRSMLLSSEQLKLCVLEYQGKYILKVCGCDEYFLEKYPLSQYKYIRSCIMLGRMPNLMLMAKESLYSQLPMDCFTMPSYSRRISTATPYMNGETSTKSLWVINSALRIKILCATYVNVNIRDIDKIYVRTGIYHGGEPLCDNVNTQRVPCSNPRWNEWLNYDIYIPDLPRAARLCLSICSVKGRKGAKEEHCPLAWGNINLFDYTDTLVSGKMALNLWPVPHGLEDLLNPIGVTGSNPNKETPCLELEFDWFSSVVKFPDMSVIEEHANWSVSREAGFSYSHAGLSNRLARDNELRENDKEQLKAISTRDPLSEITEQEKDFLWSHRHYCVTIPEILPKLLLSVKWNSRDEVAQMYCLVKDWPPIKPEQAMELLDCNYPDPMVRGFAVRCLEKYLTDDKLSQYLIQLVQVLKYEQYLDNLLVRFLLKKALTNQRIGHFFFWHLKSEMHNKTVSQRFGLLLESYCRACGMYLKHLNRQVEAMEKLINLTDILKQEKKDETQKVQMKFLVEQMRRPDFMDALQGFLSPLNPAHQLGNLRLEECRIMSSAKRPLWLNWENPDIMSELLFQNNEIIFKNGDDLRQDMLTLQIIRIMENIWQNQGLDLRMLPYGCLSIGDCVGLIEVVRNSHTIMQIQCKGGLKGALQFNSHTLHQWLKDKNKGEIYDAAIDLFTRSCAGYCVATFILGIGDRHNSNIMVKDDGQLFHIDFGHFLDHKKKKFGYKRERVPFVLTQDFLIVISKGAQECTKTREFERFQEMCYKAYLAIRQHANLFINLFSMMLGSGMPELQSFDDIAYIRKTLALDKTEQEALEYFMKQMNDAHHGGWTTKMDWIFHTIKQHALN
Sequence of PIK3CB (Human) (P42338 whole entry, looked up): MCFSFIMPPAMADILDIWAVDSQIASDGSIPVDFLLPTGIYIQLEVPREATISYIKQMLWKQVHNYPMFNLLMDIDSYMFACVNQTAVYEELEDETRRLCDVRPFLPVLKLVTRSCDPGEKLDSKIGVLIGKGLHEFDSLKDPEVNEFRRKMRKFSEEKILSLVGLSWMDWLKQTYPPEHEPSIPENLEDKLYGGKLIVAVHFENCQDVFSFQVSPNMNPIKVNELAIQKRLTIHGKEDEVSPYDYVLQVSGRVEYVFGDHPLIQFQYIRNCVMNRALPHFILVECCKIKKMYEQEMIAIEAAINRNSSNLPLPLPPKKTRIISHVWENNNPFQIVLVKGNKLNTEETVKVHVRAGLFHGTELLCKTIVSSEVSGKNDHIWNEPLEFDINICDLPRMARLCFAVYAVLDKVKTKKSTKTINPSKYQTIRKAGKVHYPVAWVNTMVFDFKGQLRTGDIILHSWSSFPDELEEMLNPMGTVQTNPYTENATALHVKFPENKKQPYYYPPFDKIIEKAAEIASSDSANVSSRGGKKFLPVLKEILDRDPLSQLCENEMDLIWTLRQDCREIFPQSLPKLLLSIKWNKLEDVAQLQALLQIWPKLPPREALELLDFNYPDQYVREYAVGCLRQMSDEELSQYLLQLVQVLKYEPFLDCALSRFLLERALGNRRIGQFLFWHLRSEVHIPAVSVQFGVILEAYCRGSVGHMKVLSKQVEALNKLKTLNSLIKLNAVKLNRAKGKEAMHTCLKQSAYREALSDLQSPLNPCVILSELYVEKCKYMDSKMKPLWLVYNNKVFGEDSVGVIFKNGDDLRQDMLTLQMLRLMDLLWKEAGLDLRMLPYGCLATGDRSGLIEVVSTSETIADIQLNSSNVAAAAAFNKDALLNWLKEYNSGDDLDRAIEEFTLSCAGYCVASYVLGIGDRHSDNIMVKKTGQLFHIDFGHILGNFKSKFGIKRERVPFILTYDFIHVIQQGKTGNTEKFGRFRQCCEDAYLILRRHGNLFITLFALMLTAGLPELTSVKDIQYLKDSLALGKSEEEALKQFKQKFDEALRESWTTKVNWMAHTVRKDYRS
Sequence of PIK3CD (Human) (O00329 whole entry, looked up): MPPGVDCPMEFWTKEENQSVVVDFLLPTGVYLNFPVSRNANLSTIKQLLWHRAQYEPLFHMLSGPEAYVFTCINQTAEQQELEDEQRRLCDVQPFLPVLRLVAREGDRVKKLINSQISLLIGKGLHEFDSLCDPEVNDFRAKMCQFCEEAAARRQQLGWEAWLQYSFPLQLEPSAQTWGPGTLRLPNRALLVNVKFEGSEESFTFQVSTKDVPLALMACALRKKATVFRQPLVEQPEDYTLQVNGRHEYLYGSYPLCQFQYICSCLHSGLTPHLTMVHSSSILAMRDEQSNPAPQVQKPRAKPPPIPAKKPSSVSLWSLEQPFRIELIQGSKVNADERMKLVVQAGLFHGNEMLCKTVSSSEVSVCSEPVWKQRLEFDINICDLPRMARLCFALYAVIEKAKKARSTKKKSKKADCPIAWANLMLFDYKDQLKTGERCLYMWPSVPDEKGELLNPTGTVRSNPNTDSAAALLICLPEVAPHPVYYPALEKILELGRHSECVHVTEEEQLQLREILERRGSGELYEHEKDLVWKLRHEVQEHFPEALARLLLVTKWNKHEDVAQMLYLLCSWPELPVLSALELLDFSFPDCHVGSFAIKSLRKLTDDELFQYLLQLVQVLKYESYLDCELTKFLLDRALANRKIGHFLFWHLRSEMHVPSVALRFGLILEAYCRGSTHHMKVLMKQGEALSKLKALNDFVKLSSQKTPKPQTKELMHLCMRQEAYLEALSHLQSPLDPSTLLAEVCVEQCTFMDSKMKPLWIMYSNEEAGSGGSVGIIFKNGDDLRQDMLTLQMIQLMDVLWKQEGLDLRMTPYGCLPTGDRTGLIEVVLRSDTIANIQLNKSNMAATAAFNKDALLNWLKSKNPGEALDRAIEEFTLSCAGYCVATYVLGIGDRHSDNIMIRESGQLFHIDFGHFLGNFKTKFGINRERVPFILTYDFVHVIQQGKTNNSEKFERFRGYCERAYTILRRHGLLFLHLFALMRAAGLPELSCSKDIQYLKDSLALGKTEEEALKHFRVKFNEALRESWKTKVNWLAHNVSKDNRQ

With `CC(=O)Nc1nc2cc(-c3nn(Cc4cc5cccc(C)c5c(=O)n4-c4ccccc4)c4ncnc(N)c34)ccc2s1`, the IC50 in test [1] is > 10 µM; in test [2] it was > 10 µM; in test [3], 0.1 to 1 µM; in test [4], 0.1 to 1 µM.
For `Cc1cccc2cc([C@H](C)Nc3nc(N)ncc3Cl)n(C3CC3)c(=O)c12`, the IC50 in test [1] was > 10 µM; in test [2], 0.1 to 1 µM; in test [3], < 0.1 µM; in test [4], 0.1 to 1 µM.
Take `Cc1cccc2cc(Cn3nc(C#C[C@@H](C)O)c4c(N)ncnc43)n(-c3ccccc3F)c(=O)c12`: the IC50 was > 10 µM in test [1], > 10 µM in test [2] and 0.1 to 1 µM in test [4].
For `Cc1cccc2cc([C@H](C)Nc3nc(N)ncc3F)n(-c3ccccc3)c(=O)c12`, the IC50 was > 10 µM in test [1], > 10 µM in test [2], < 0.1 µM in test [3] and 0.1 to 1 µM in test [4].
On to `Cc1cccc2cc(Cn3nc(C#C[C@@H](C)O)c4c(N)ncnc43)n(-c3ccccc3Cl)c(=O)c12`, for which the IC50 in test [1] was > 10 µM; in test [2] it was > 10 µM; in test [4], 0.1 to 1 µM.
Take `Cc1cccc2cc([C@H](C)Nc3ncnc4[nH]nc(Cl)c34)n(C3CC3)c(=O)c12`: the half-maximal inhibitory concentration (IC50) is > 10 µM in test [1], 0.1 to 1 µM in test [2], < 0.1 µM in test [3] and 0.1 to 1 µM in test [4].
As for `Cc1ccccc1-n1c(Cn2nc(C=CC(=O)N3CCOCC3)c3c(N)ncnc32)cc2cccc(C)c2c1=O`, the IC50 in test [1] was > 10 µM; in test [2], > 10 µM; in test [3] it was 0.1 to 1 µM; in test [4], > 10 µM.
In the case of `Cc1cccc2cc(Cn3nc(-c4cccc(O)c4)c4c(N)ncnc43)n(-c3ccccc3F)c(=O)c12`, the IC50 in test [1] was > 10 µM; in test [2], > 10 µM; in test [4], 0.1 to 1 µM.
For the compound `COc1ccccc1-n1c(Cn2nc(C#C[C@@H](C)O)c3c(N)ncnc32)cc2cccc(C)c2c1=O`, the IC50 in test [1] was > 10 µM; in test [2], > 10 µM; in test [4] it was 0.1 to 1 µM.
`Cc1ccccc1-n1c(Cn2nc(I)c3c(N)nccc32)cc2cccc(C)c2c1=O`: the values for the concentration for half-maximal inhibition (IC50) in test [1], in test [2] and in test [4] were > 10 µM, > 10 µM and 0.1 to 1 µM, respectively.
In the case of `Cc1cccc2cc(Cn3nc(-c4cn[nH]c4)c4c(N)ncnc43)n(-c3cccc(F)c3)c(=O)c12`, the 50% inhibitory concentration (IC50) was > 10 µM in test [1], > 10 µM in test [2] and 0.1 to 1 µM in test [4].
As to `Cc1ccccc1-n1c(Cn2nc(-c3cccc(F)c3)c3c(N)ncnc32)cc2cccc(C)c2c1=O`, the IC50 in test [1] was > 10 µM; in test [2], > 10 µM; in test [4], 0.1 to 1 µM.
Regarding `Cc1cccc2cc(Cn3nc(C#C[C@@H](C)O)c4c(N)ncnc43)n(C3CC3)c(=O)c12`, the IC50 in test [1] was > 10 µM; in test [2], 0.1 to 1 µM; in test [4], 0.1 to 1 µM.
On to `Cc1ccccc1-n1c(Cn2nc(-c3cccc(Cl)c3)c3c(N)ncnc32)cc2cccc(C)c2c1=O`, for which the half-inhibitory concentration (IC50) was > 10 µM in test [1], > 10 µM in test [2] and 0.1 to 1 µM in test [4].
In the case of `Cc1cccc2cc(C(C)Nc3ncnc4[nH]cnc34)n(-c3c(F)cccc3F)c(=O)c12` (stereo unspecified), the half-inhibitory concentration (IC50) in test [1] was > 10 µM; in test [2], > 10 µM; in test [3], < 0.1 µM; in test [4] it was 0.1 to 1 µM.
On to `Cc1cccc2cc(Cn3nc(C#CCO)c4c(N)ncnc43)n(-c3ccccc3F)c(=O)c12`, for which the IC50 in test [1] was > 10 µM; in test [2] it was > 10 µM; in test [4], 0.1 to 1 µM.
`Cc1cccc2cc([C@H](C)Nc3ncnc4ccccc34)n(-c3ccccc3)c(=O)c12`: the IC50 in test [1] was > 10 µM; in test [2] it was > 10 µM; in test [3] it was < 0.1 µM; in test [4], 0.1 to 1 µM.
For `Cc1ccccc1-n1c(Cn2nc(-c3cnn(CCO)c3)c3c(N)ncnc32)cc2cccc(C)c2c1=O`, the 50% inhibitory concentration (IC50) in test [1] is > 10 µM; in test [2] it was > 10 µM; in test [4] it was 0.1 to 1 µM.
Consider `Cc1cccc2cc(Cn3nc(-c4ccc(F)c(O)c4)c4c(N)ncnc43)n(-c3ccccc3F)c(=O)c12`, for which the IC50 in test [1] was > 10 µM; in test [2], > 10 µM; in test [4], 0.1 to 1 µM.
As for `Cc1cccc2cc([C@H](C)Nc3nc(F)nc4[nH]cnc34)n(C3CC3)c(=O)c12`, the values for the IC50 in test [2], in test [3] and in test [4] were < 0.1 µM, < 0.1 µM and 0.1 to 1 µM, respectively.
Consider `C=Cc1nn(Cc2cc3cccc(C)c3c(=O)n2-c2ccccc2C)c2ncnc(N)c12`, for which the IC50 in test [1] was > 10 µM; in test [2], > 10 µM; in test [4], 0.1 to 1 µM.
For `Cc1cccc2cc([C@H](C)Nc3nc(Cl)nc4[nH]cnc34)n(C3CC3)c(=O)c12`, the IC50 in test [1] was > 10 µM; in test [2], < 0.1 µM; in test [3], < 0.1 µM; in test [4] it was 0.1 to 1 µM.
`Cc1cccc2cc(Cn3nc(-c4cn[nH]c4)c4c(N)ncnc43)n(-c3ccccc3Cl)c(=O)c12`: the results for the IC50 in test [1], in test [2] and in test [4] were > 10 µM, > 10 µM and 0.1 to 1 µM, respectively.
Regarding `Cc1cccc2cc(Cn3nc(I)c4c(N)ncnc43)n(-c3ccccc3OCCN3CCOCC3)c(=O)c12`, the results for the IC50 in test [1], in test [2] and in test [4] were > 10 µM, > 10 µM and 0.1 to 1 µM, respectively.
`Cc1cccc2cc([C@H](C)Nc3cc(N)nc(N)n3)n(-c3ccccc3)c(=O)c12`: the IC50 in test [1] was > 10 µM; in test [2], > 10 µM; in test [3] it was 0.1 to 1 µM; in test [4], 0.1 to 1 µM.
Turning to `Cc1cccnc1-n1c(Cn2nc(-c3cc(O)cc(F)c3)c3c(N)ncnc32)cc2ccccc2c1=O`, the concentration for half-maximal inhibition (IC50) in test [1] was > 10 µM; in test [2] it was > 10 µM; in test [4] it was 0.1 to 1 µM.
Take `Cc1cccnc1-n1c(Cn2nc(-c3cccc(O)c3)c3c(N)ncnc32)cc2cccc(C)c2c1=O`: the IC50 in test [1] is > 10 µM; in test [2] it was > 10 µM; in test [4], 0.1 to 1 µM.
For `Cc1cccc2cc(Cn3nc(-c4cnn(CCO)c4)c4c(N)ncnc43)n(-c3ccccc3F)c(=O)c12`, the concentration for half-maximal inhibition (IC50) in test [1] was > 10 µM; in test [2], > 10 µM; in test [4], 0.1 to 1 µM.
For `Cc1ccccc1-n1c(Cn2nc(C#CCO)c3c(N)ncnc32)cc2cccc(C)c2c1=O`, the half-maximal inhibitory concentration (IC50) is > 10 µM in test [1], > 10 µM in test [2] and 0.1 to 1 µM in test [4].
For the compound `COc1ccccc1-n1c(Cn2nc(I)c3c(N)ncnc32)cc2cccc(C)c2c1=O`, the 50% inhibitory concentration (IC50) is > 10 µM in test [1], > 10 µM in test [2] and 0.1 to 1 µM in test [4].
For the compound `Cc1ccccc1-n1c(Cn2nc(C#CC3CC3)c3c(N)ncnc32)cc2cccc(C)c2c1=O`, the IC50 is > 10 µM in test [1], > 10 µM in test [2], 0.1 to 1 µM in test [3] and 0.1 to 1 µM in test [4].
Turning to `Cc1cccc(C)c1-n1c(CNc2ncnc3[nH]cnc23)cc2cccc(C)c2c1=O`, the IC50 in test [1] was > 10 µM; in test [2], > 10 µM; in test [3], < 0.1 µM; in test [4] it was 0.1 to 1 µM.
Regarding `Cc1ccccc1-n1c(Cn2nc(-c3cnn(C)c3)c3c(N)ncnc32)cc2cccc(C)c2c1=O`, the IC50 in test [1] is > 10 µM; in test [2], > 10 µM; in test [4], 0.1 to 1 µM.
In the case of `Cc1cccc2cc(Cn3nc(C=C4CCNC4=O)c4c(N)ncnc43)n(-c3ccccc3F)c(=O)c12`, the IC50 in test [1], in test [2] and in test [4] was > 10 µM throughout.
Take `COc1cc(-c2nn(Cc3cc4cccc(C)c4c(=O)n3-c3ccccc3F)c3ncnc(N)c23)ccc1Cl`: the IC50 in test [1] is > 10 µM; in test [2] it was > 10 µM; in test [4] it was 0.1 to 1 µM.
As for `Cc1cccc2cc(Cn3nc(-c4cccc(O)c4)c4c(N)ncnc43)n(-c3ccccc3OCCN3CCOCC3)c(=O)c12`, the IC50 in test [1] is > 10 µM; in test [2], > 10 µM; in test [4], 0.1 to 1 µM.
For `Cc1ccccc1-n1c(Cn2nc(-c3ccc(F)cc3)c3c(N)ncnc32)cc2cccc(C)c2c1=O`, the concentration for half-maximal inhibition (IC50) in test [1] was > 10 µM; in test [2], > 10 µM; in test [4], 0.1 to 1 µM.
For `Cc1cccc2cc(C(C)Nc3ncnc4[nH]cnc34)n(-c3cc(F)cc(F)c3)c(=O)c12` (stereo unspecified), the half-maximal inhibitory concentration (IC50) in test [1] is > 10 µM; in test [2] it was > 10 µM; in test [3], < 0.1 µM; in test [4], 0.1 to 1 µM.

These data come from the Kinase Knowledgebase extract (Sharma et al. 2016).
